Here are results for 9 compounds from patent publication US11576981B2, “Acyl hydrazone linkers, methods and uses thereof” (Ontario Institute for Cancer Research (OICR), priority 2017, dated 2023).

Data set [1] is described as follows: Half-life of model acyl hydrazones in a simulated lysosomal environment (pH 4.5). The format is physicochemical. Conditions: read-out: Acidic (pH 4.5) Half life. From the text: Towards the goal developing enhanced control of ADC linker stability, several model cyclic acyl hydrazones whose lability is modulated either by steric or stereoelectronic effects have been prepared. Exemplary acyl hydrazones containing a substituted phenyl group adjacent to the imine carbon have been synthesized. Starting with the acyl hydrazone structure (D) present in Mylotarg, the adjacent steric and electronic environments in model linker compounds were varied and their half-life tested in a simulated lysosomal environment (pH 4.5), as shown in Table 1. […] On the other hand, incorporation of a methoxy group in the same position (as in G) rendered the cyclic hydrazone very labile with a half-life of only 2 min.

A short description of data set [2]: Stability of acyl hydrazones on incubation in human plasma. In kind it is in vitro ADME. To be noted: 6 days incubation in human plasma; remaining parent acyl hydrazone. As for the experimental part: In addition, for an ADC to have a better therapeutic window, ideally it should be stable in plasma and having the payload released only upon entry to the target cells. Thus targeted cytotoxicity would be mostly confined to the diseased cells of interest. Starting with the acyl hydrazone structure (D) present in Mylotarg, the adjacent steric and electronic environments were varied in model linker compounds and their stability was tested in plasma.

Data set [3] has as its system SKOV3 ovarian cancer cell line. Put plainly: Cytotoxicity against SKOV3 (CellTiter-Glo ATP viability). In kind it is cell-based. Conditions: ATP content. Background: Cellular ATP, detected with luciferase, serves as a proxy for viable cell number.
Protocol: SKOV3 ovarian cells are incubated with the effectors for a period corresponding to 2 to 3 times their estimated doubling time and the amount of viable cells is determine by measuring ATP content in the wells. […] All ADCs are diluted in DPBS to 6× the highest concentration tested, followed by 10 3-fold serial dilutions in DPBS for a total of 11 concentration points. Each point is added to triplicate wells. DPBS is added in wells to measure the maximum growth. Cells are diluted at their appropriate seeding density (ranging from 150 to 1000 cells per well) in complete media supplemented with glutamine 2 mM, serum and antibiotic cocktail. They are distributed in white, opaque bottom, tissue-culture treated 384 well plates and incubated for 24 hrs at 37° C.+5% CO2. […] Total ATP is measured using CellTiter-Glo reagent from Promega as recommended by the supplier. […] Signal output is measured on a luminescence plate reader (envision, Perkin Elmer) set at an integration time of 0.1 sec. […]
Each concentration point (S) is normalized to the negative control wells (NC) and expressed as % survival (NC−S/NC×100). Potency (IC50) and efficacy are calculated from a non-linear curve fit of the points versus log of the concentrations without constrain on the slope. Refined data are analysed using Prism software.
In data set [4] the test system is glioblastoma EGFR^+ U87 cell lines (U87MG engineered to overexpress wt EGFR). As to the kind of experiment: Cell proliferation assay (SRB), EGFR^+ U87 cells. In kind it is cell-based. To be noted: Homo sapiens, U-87 MG, 72 h. As to the method: (§1) The parental U87MG glioblastoma human tumor cell line (ATCC) and the corresponding cell line engineered to overexpress wt EGFR (EGFR^+ U87) (˜2M receptors per cell) were grown in DMEM medium containing 10% fetal bovine serum and 2 mM L-glutamine. Cells were inoculated into 96 well microtiter plates in 100 μL at a plating density of 4000 cells/well After cell inoculation, the microtiter plates were incubated at 37° C., 5% CO2, 95% air and 100% relative humidity. After 24 h incubation, experimental drugs were diluted to 10× the desired final maximum test concentration with complete medium and additional 10-fold or ½ log serial dilutions were made to provide a total of 6 drug concentrations plus control. Aliquots of 10 μl of these different drug dilutions were added to the appropriate microtiter wells already containing 100 μl of medium, resulting in the required final drug concentrations.
(§2) Following drug addition, the plates were incubated for an additional 72 h at 37° C., 5% CO2, 95% air, and 100% relative humidity. […] Bound stain was subsequently solubilized with 10 mM trizma base, and the absorbance was read on an automated plate reader at a wavelength of 515 nm. The growth was calculated at each of the drug concentrations levels relative to untreated cells (media only control).
(§3) Percentage growth inhibition was calculated as: [(Ti)/(C)]×100 […]

Data set [5] relates to parental U87MG glioblastoma human tumor cell line. Put plainly: Cell proliferation assay (SRB), U87 parental cells. The format is cell-based. To be noted: U-87 MG, 72 h. As for the experimental part:
as §1, §2, §3

Broadly, the half-life is the time in which the quantity being followed falls by half. On to `C/C(=N\NC(=O)CC(C)(C)S)c1ccc(OCCCC(=O)O)cc1` [Compound Ia, 4-(4-(1-(2-(3-Mercaptomethylbutanoyl) hydrazineylidene)ethyl)phenoxy) butanoic acid], for which the half-life in data set [1] is 15 min.

For the compound `CC(=O)N/N=C1\CCc2cccc(O)c21` [L], in data set [2], the “% remaining after 6 days” value was 50%. In addition, the half-life in data set [1] is 185 min.

`CC(C)(S)CC(=O)N/N=C1\CCCc2cc(OCCCC(=O)O)ccc21` [Compound Ie, 4-((5-(2-(3-Mercapto-3-methylbutanoyl)hydrazineylidene)-5,6,7,8-tetrahydronaphthalen-2-yl)oxy)butanoic acid]: in data set [1], the half-life was 31 min.

The IC50 is the concentration that gives 50% inhibition. In the case of Synagis-SMCC-DM1: negative control ADC, inhibition in data set [3] was half-maximal at 9.64 nM (IC50).

For `COc1cc2cc(c1Cl)N(C)C(=O)C[C@H](OC(=O)[C@H](C)N(C)C(=O)CCS)[C@]1(C)O[C@H]1[C@H](C)[C@@H]1C[C@@](O)(NC(=O)O1)[C@H](OC)/C=C/C=C(\C)C2` [DM1], the IC50 in data set [4] turned out to be 10.3 nM; in data set [5], 12.3 nM.

In the case of `CC(C)(S)CC(=O)NN=C1CCCc2cc(OCCCC(=O)O)cc(O)c21` [Compound Ib, 4-((4-Hydroxy-5-(2-(3-mercapto-3-methylbutanoyl)hydrazono)-5,6,7,8-tetrahydronaphthalen-2-yl)oxy)butanoic acid], the half-life in data set [1] was 234 min.

On to `COc1ccc(/C(C)=N/NC(C)=O)cc1` [D], for which the “% remaining after 6 days” value in data set [2] turned out to be 37%. The half-life in data set [1] was 15 min.

`CC(=O)N/N=C1\CCCc2ccc(F)cc21` [K]: the half-life in data set [1] was 88 min.

In the case of `COc1cc(O)cc2c1/C(=N/NC(C)=O)CCC2` [G], in data set [1], the half-life is 2 min.
